# Measured values as given in patent US20260167541A1, “BIOCIDAL CONTROL IN AQUEOUS MEMBRANE SEPARATION SYSTEMS” (Albemarle Corporation, priority 2023, published 2026).
# Assays:
# [1] = system: biofilm; test: Biofilm coupon test with modified Robbins device (ATP, RLU); assay type: cell-based, bacteria; conditions: water upstream of and near the RO membrane; average of 3 or 4 coupons
# Procedure: (§1) Marsh water was fed into a storage tank via a 1200-foot long (365 m) hose. A biocide was added to the hose at a point 20 feet (6.1 m) before the hose connection to the storage tank. Water was fed from the storage tank to a reverse osmosis (RO) system equipped with an ultrafiltration (UF) membrane upstream of an RO membrane. In this system, the UF membrane was a non-protected membrane and the RO membrane was a protected membrane. An oxidation-reduction potential (ORP) electrode was in the water at a point upstream of and near the RO membrane, and the ORP electrode was connected to an ORP controller unit (ORP electrode: RD2, Hach Company). Measurements from the ORP were monitored, and the reducing agent was pumped into the RO system downstream of the ORP electrode as needed as indicated by the ORP reading from the ORP electrode. […]
# (§2) The water was sampled at various times upstream of and near the UF membrane, and the water was also sampled at various times upstream of and near the RO membrane. […] Functionality of the RO membrane, types of microbes at RO membrane after treatment, biocide efficacy on microbes in water, and biocide efficacy for biofilm growth were determined. […]
# [2] = system: microbes in water; test: Biocide efficacy on microbes in water (planktonic biocidal reduction, marsh water); assay type: cell-based
# Procedure: Marsh water was fed into a storage tank via a 1200-foot long (365 m) hose. A biocide was added to the hose at a point 20 feet (6.1 m) before the hose connection to the storage tank. Water was fed from the storage tank to a reverse osmosis (RO) system equipped with an ultrafiltration (UF) membrane upstream of an RO membrane. In this system, the UF membrane was a non-protected membrane and the RO membrane was a protected membrane. An oxidation-reduction potential (ORP) electrode was in the water at a point upstream of and near the RO membrane, and the ORP electrode was connected to an ORP controller unit (ORP electrode: RD2, Hach Company). Measurements from the ORP were monitored, and the reducing agent was pumped into the RO system downstream of the ORP electrode as needed as indicated by the ORP reading from the ORP electrode.
# The biocides tested were bleach, 1,3-dibromo-5,5-dimethylhydantoin (Br2DMH; Albemarle Corporation), and an aqueous solution formed from bromine chloride and sulfamic acid containing over 50,000 ppm of active halogen having a pH in the range of 13 to 14 (BrCl/sulfamic acid; STABROM® 909 biocide, Albemarle Corporation). The reducing agent used with each biocide was […].
# The water was sampled at various times upstream of and near the UF membrane, and the water was also sampled at various times upstream of and near the RO membrane. The duration of testing for each biocide was approximately 30 days. Functionality of the RO membrane, types of microbes at RO membrane after treatment, biocide efficacy on microbes in water, and biocide efficacy for biofilm growth were determined.
# For the data in Table 3, the water was sampled upstream of and near the UF membrane, and upstream of and near the RO membrane The data in Table 3 are an average of samples from several days for planktonic biocidal reduction.
# [3] = system: Aerobic bacteria; test: Types of microbes at RO membrane after treatment (membrane autopsy): aerobic bacteria; assay type: cell-based; conditions: on RO membrane after 30 days of exposure to the biocide
# Procedure: as §1, §2
# [4] = system: Yeast/mold; test: Types of microbes at RO membrane after treatment (membrane autopsy): yeast/mold; assay type: cell-based; conditions: on RO membrane after 30 days of exposure to the biocide
# Procedure: as §1, §2
# [5] = untreated water to RO feed water
smiles,measurement,setting,value
"CC1(C)C(=O)N(Br)C(=O)N1Br [Br2DMH, 1,3-dibromo-5,5-dimethylhydantoin]",ATP on Polyamide coupon,[1],5825 RLU
same,"Log reduction, total (untreated to RO)",[2]; [5],2.1
same,"Reduction, total (untreated to RO)",[2]; [5],99.2%
same,RO feed water,"[2]; water sampled upstream of and near the RO membrane, average of samples from several days",2.2 log cfu/mL
same,UF feed water,"[2]; water sampled upstream of and near the UF membrane, average of samples from several days",3.1 log cfu/mL
same,Aerobic bacteria rating,[3],"High (10,000 to 1,000,000)"
same,Yeast/mold rating,[4],Low (0 to 100)
